# Several values for one entry are separate records, joined by “and”; a condition that tells them apart may be missing. Equal entries are not always repeated.
# Tests used:
# plasma 24HC = assay: Multiple rising dose study: pharmacodynamics, plasma 24HC; assay type: in vivo, human
# Description: An 8 mL blood sample was collected to obtain plasma 24HC levels for PD analysis on day 1 and day 14 at 30 minutes pre-dose and at 30 minutes, and 1, 2, 4, 8, 12, 16, and 24 hours post-dose. The mean 24-hour area under the effect curve (AUEC24), presented as the percent change in 24HC from baseline, for doses 100, 300, and 400 mg were −46.8, −61.9, and −62.7, respectively. […] Example 7 below further describes the study's PD protocol and trial results, including safety (example 8).
# Plasma 24HC collection and measurement were as described in example 5, with the exception that the 30—minute pre-dose sampling occurred on day 1, 7, 12, 13 and 14, and the 24-hour sampling occurred on day 1 and 14. Assay quality control measures, parameter and statistical analyses were performed as described in example 5. […] Subjects in the 300 mg BID and 600 mg QD cohorts discontinued treatment after day 10 due to some subjects experiencing adverse effects.
# clinical = settings: human, in vivo; for AUC: AUC24 / mean steady-state area under the curve
# Description: Soticlestat was administered in tablet formulation during fasting condition. […] Blood samples were obtained before the first morning dose, and at 1, 3, and 5 hours post-dose. On days 11 and 21, blood samples were taken before the morning dose and 1 hour post-dose. In Part B, patients were administered 200 mg BID for days 31-40, followed by 300 mg BID for days 41-85. On days 31, 41, and 85, blood samples were taken before the morning dose. […] The AUC24 for doses 100, 200, and 300 mg BID were 562.5, 1437, and 2188 ng×h/mL, respectively.
# Blood samples were collected before and after the morning dose on days 1, 11, and 21, and before and after the morning dose on days 31, 41, and 85.
# [1] = tested on: seizure frequency in developmental and/or epileptic encephalopathy patients; assay: Adult DEE patients: antiseizure efficacy (seizure frequency); assay type: in vivo, human
# Description: The third clinical trial was a randomized, double-blind, placebo controlled study. […] After the completion of Part A, 16 patients continued in Part B with open-label treatment for 60 additional days. Patients were included in the trial if they were 18-65 years of age with an established diagnosis of DEE, such as Lennox-Gastaut syndrome, Dravet syndrome, or tuberous sclerosis complex. For enrollment, patients were required to have had at least two bilateral motor seizures per month in the three months prior. In addition, during the 4-week baseline period prior to dosing, patients were required to have incurred at least one bilateral motor seizure. Exclusion criteria included abnormal ECG, degenerative eye disease, or admission to emergency care for treatment of status epilepticus that required mechanical ventilation.
# Only patients having at least one bilateral seizure during the baseline study were eligible to continue. […] The range of seizure types included tonic-clonic, drop seizures, tonic, atonic, bilateral clonic, myoclonic-atonic, myotonic-tonic-clonic, and focal seizures. Aside from seizure history, subjects were also enrolled based on an establish diagnosis of DEE, such as Lennox-Gastaut syndrome (LGS) and Dravet syndrome (DS), tuberous sclerosis complex, and a history of special education or an overall intellectual quotient of <70. […] Subjects could continue taking 1-4 anti-seizure medicines (ASM), with the exception of stiripentol, during the study.
# FIG. 9A depicts the study paradigm and FIG. 9B depicts the patient disposition. […] Part B consisted of an open-label 85-day extension study to ensure long-term safety and tolerability. The first 20 days of part A consisted of a tolerability titration phase, and thereafter a maintenance phase lasting from days 21-30.
# [2] = Healthy Japanese subjects: safety and tolerability; assay type: in vivo, human
# Description: Primary Objective: To evaluate the safety and tolerability of TAK-935 in healthy Japanese subjects when administered as single oral dose or multiple oral doses with titration. Secondary Objective: To evaluate the PK of TAK-935 in healthy Japanese subjects when administered as single oral dose or multiple oral doses with titration.
# This study consisted of 2 parts, and was a randomized, double-blind, placebo-controlled study to assess safety, tolerability, and PK and PD of TAK-935 when administered orally in healthy Japanese subjects.
# The primary endpoint of the study included: Safety endpoint: Percentage of subjects who experience at least 1 TEAE Secondary endpoints included:
# • Laboratory tests. • Vital signs. • ECG parameters.
# [3] = multiple doses 100-300 mg BID, TAK-935 group
smiles,measurement,setting,value
O=C(c1cccnc1-c1ccncc1)N1CCC(O)(Cc2ccccc2)CC1 [soticlestat],"24HC AUEC24, mean, percent change from baseline (day −1)",plasma 24HC; 100 mg QD day 1,−8.15%
same,"24HC E24, mean, percent change from baseline (day −1)",plasma 24HC; 100 mg QD day 1,−20.9%
same,"24HC AUEC24, mean, percent change from baseline (day −1)",plasma 24HC; 100 mg QD day 14,−46.8%
same,"24HC E24, mean, percent change from baseline (day −1)",plasma 24HC; 100 mg QD day 14,−49.1%
same,"24HC AUEC24, mean, percent change from baseline (day −1)",plasma 24HC; 300 mg BID day 1,−6.90%
same,"24HC E24, mean, percent change from baseline (day −1)",plasma 24HC; 300 mg BID day 1,−10.5%
same,"24HC AUEC24, mean, percent change from baseline (day −1)",plasma 24HC; 300 mg QD day 1,−12.7%
same,"24HC E24, mean, percent change from baseline (day −1)",plasma 24HC; 300 mg QD day 1,−22.4%
same,"24HC AUEC24, mean, percent change from baseline (day −1)",plasma 24HC; 300 mg QD day 14,−61.9%
same,"24HC E24, mean, percent change from baseline (day −1)",plasma 24HC; 300 mg QD day 14,−63.8%
same,"24HC AUEC24, mean, percent change from baseline (day −1)",plasma 24HC; 400 mg QD day 1,−11.7%
same,"24HC E24, mean, percent change from baseline (day −1)",plasma 24HC; 400 mg QD day 1,−28.4%
same,"24HC AUEC24, mean, percent change from baseline (day −1)",plasma 24HC; 400 mg QD day 14,−62.7%
same,"24HC E24, mean, percent change from baseline (day −1)",plasma 24HC; 400 mg QD day 14,−65.6%
same,"24HC AUEC24, mean, percent change from baseline (day −1)",plasma 24HC; 600 mg QD day 1,−14.0%
same,"24HC E24, mean, percent change from baseline (day −1)",plasma 24HC; 600 mg QD day 1,−30.6%
same,clearance,clinical; 100 mg,4320 mL/min
same,AUC,clinical; 100 mg,562 ng·h/mL
same,Cmax,"clinical; 100 mg, Cmax steady state, mean",270 ng/mL
same,clearance,clinical; 200 mg,3260 mL/min
same,AUC,clinical; 200 mg,1440 ng·h/mL
same,Cmax,"clinical; 200 mg, Cmax steady state, mean",640 ng/mL
same,clearance,clinical; 300 mg,3170 mL/min
same,AUC,clinical; 300 mg,2190 ng·h/mL
same,Cmax,"clinical; 300 mg, Cmax steady state, mean",975 ng/mL
same,Cmax,"clinical; Study TAK-935-2001, 200 mg BID, Mean, read-out: Cmax, ss",1270 ng/mL
same,"change in seizure frequency from baseline, individual patients","[1]; Part A, three patients treated concurrently with perampanel",+107% and +465% and +4%
same,median percent change from baseline seizure frequency,"[1]; Part B maintenance, days 42-85 (n=16)",−36.38%
same,median percent change from baseline seizure frequency,"[1]; Part B, excluding patients taking perampanel (n=13)",−44.66%
same,"change in seizure frequency from baseline, individual patients","[1]; Part B, three patients taking perampanel",+297% and +398% and +175%
same,median seizure frequency,[1]; all completers except those taking perampanel,25.60 per 28 days
same,reduction in seizure frequency in two patients,[1]; last 4 weeks/month of treatment,100%
same,median percent change from baseline seizure frequency,[1]; last 28 days of Part B (post-hoc),−60.74%
same,"deaths, SAEs, TEAEs leading to discontinuation",[2]; healthy Japanese subjects,"No deaths, SAEs, or TEAEs leading to study drug discontinuation"
same,intensity of TEAEs,[2]; healthy Japanese subjects,All of the TEAEs were mild
same,subjects who experienced TEAEs,[2]; [3],5 subjects
same,subjects with drug-related TEAEs,[2]; [3],3 subjects
same,tolerability,[2]; single dose up to 1200 mg and multiple doses 100 to 300 mg BID,well tolerated

# From patent US20250213547A1, “METHODS OF TREATING NEUROLOGICAL DISEASES” (priority 2022, published 2025)
